Data published in PMC6983048 (Molecules, 2019).
Where two headings read alike, the source gives them in different places.

Experiments:
[1] = test system: human DHFR (hDHFR); conditions: relative to TMP; cited from earlier work
[2] = test system: pBR322 plasmid; assay: Ethidium bromide assay, DNA-binding effects on plasmid pBR322; conditions: for Decrease of Fluorescence: 10 μM compound, plasmid pBR322 with ethidium bromide, 25 °C 30 min, % fluorescence relative to controls (no drug = 100%); for Binding to DNA (pBR322 plasmid), in words: ethidium bromide assay
Description: Each well of a 96-well plate was loaded with Tris buffer containing ethidium bromide (0.1 M Tris, 1 M NaCl, pH 8.0, 0.5 mM EtBr final concentration, 100 μL). […] Fluorescence readings are reported as % fluorescence relative to the controls.

[3] = test system: T4 coliphage DNA; assay: Ethidium displacement assay, DNA-binding constants; conditions: apparent association constant
Description: (§1) The fluorescence of DNA solutions (calf thymus DNA, T4 coliphage DNA, poly(dA-dT)2, and poly(dG-dC)2 with the investigated compound (final concentrations 10, 50, 100 µM) was measured by the fluorescence spectrophotometer Infinite M200 TECAN at room temperature according to the procedure described above. Then, the concentration, which reduced fluorescence to 50% was determined for each compound. The data points of fluorescence intensity were fitted to the theoretical curves, with one or two different iterative nonlinear least squares computer routines. The apparent binding constant was calculated from KEtBr [EtBr] = Kapp [drug], where [drug] = the concentration of the tested compound at 50% reduction of fluorescence and KEtBr and [EtBr] are known. TMP and MTX were also investigated.

[4] = test system: calf thymus DNA; assay: Ethidium displacement assay, DNA-binding constants; conditions: apparent association constant
Description: as §1

[5] = test system: poly(dA-dT)2; assay: Ethidium displacement assay, DNA-binding constants; conditions: apparent association constant
Description: as §1

[6] = test system: poly(dG-dC)2; assay: Ethidium displacement assay, DNA-binding constants; conditions: apparent association constant
Description: as §1

[7] = molecular target: T1, recombinant human DHFR enzyme (Homo sapiens, UniProt P00374); assay: Dihydrofolate reductase (DHFR) inhibition assay; assay type: biochemical; conditions: pH 7.5, 22 °C, absorbance 340 nm
T1 construct: purchased
T1 sequence (P00374 1-187): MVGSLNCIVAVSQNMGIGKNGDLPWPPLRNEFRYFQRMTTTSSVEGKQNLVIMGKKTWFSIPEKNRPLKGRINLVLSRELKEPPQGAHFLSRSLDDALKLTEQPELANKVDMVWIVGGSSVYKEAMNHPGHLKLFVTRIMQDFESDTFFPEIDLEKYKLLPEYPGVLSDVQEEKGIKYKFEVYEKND
Description: The procedure for detection of DHFR activity inhibition included preparation of a test mixture in a 1.0 mL quartz cuvette for the spectrophotometric method. Assay buffer—1× for DHFR (pH 7.5) and 1.5 × 10^−3 units of DHFR were added to the appropriate tube and thoroughly mixed. […] After mixing accurately, the reaction was initiated by adding 10 mM dihydrofolic acid (5 µL for each reaction) and a kinetics program was immediately started. The changes in absorbance (ΔOD/ min) were measured by the spectrophotometer Specord 200Plus (Analytikjena, Germany) at 340 nm and 22 °C, and the kinetic program (reading every 15 s for 2.5 min) according to the instructions supplied with the set and recommended by the producer.

[8] = test system: poly(dA-dT)2 (DNA, polymer) AT; assay: ethidium bromide displacement fluorescence; conditions: Na+ 1 M; 0.1 M Tris pH 8.0, room temperature; ethidium displaced; apparent
[9] = test system: poly(dG-dC)2 (DNA, polymer) GC; assay: ethidium bromide displacement fluorescence; conditions: Na+ 1 M; 0.1 M Tris pH 8.0, room temperature; ethidium displaced; apparent
[10] = test system: DHFR; parameters: method as in PMID 30991189; conditions: cited from earlier work
[11] = test system: calf thymus DNA; parameters: method as in PMID 2540332; conditions: KEtBr, known constant of ethidium bromide; cited from earlier work
[12] = test system: T4 coliphage DNA; parameters: method as in PMID 2540332; conditions: KEtBr, known constant of ethidium bromide; cited from earlier work
[13] = test system: poly(dA-dT)2; parameters: method as in PMID 2540332; conditions: KEtBr, known constant of ethidium bromide; cited from earlier work
[14] = test system: poly(dG-dC)2; parameters: method as in PMID 2540332; conditions: KEtBr, known constant of ethidium bromide; cited from earlier work
[15] = test system: hDHFR; parameters: method as in PMID 28152430; conditions: Wang's compounds; read-out: IC50 (Figure 1); cited from earlier work
[16] = test system: pBR322 plasmid; parameters: method as in PMID 27008800; conditions: same conditions; cited from earlier work
[17] = Sabry's compounds, read-out: IC50 (Figure 1)
[18] = read-out: DHFR inhibitory potency IC50

Decrease of Fluorescence [2] [%]	IC50 [7] [µM]	Structure (SMILES)	Kapp T4 DNA [3] [M⁻¹]	Kapp Calf Thymus DNA [4] [M⁻¹]	Kapp Poly (dA-dT)2 [5] [M⁻¹]	Kapp Poly (dG-dC)2 [6] [M⁻¹]	Kapp [8]	Kapp [9]	further results
–	–	CCc1nc(N)nc(N)c1C#CCc1cc(OC)c(OC)c(OC)c1 [C]	–	–	–	–	–	–	potency greater than TMP [1]: 3500 fold
71.43	21.8	COc1cc(C(=O)Nc2cnc(N)nc2)cc(OC)c1OC [Compound 1, N-(2-Aminopyrimidin-5-yl)-3,4,5-Trimethoxybenzamide]	290000	240000	1.17e+06	130000	11.7 ± 0.2 × 10^5 M^-1	1.3 ± 0.2 × 10^5 M^-1	–
69.17	15.9	COc1cc(CC(=O)Nc2ccc(N)cc2)cc(OC)c1OC [Compound 5, N-(4-Aminophenyl)-2-(3,4,5 Trimethoxyphenyl)Acetamide]	680000	520000	1.4e+06	300000	14 ± 0.2 × 10^5 M^-1	3.0 ± 0.2 × 10^5 M^-1	–
71.43	15.1	COc1cc(CCC(=O)Nc2ccc(N)cc2)cc(OC)c1OC [Compound 6, N-(4-Aminophenyl)-3-(3,4,5-Trimethoxyphenyl)Propanamide]	90000	460000	420000	110000	4.2 ± 0.2 × 10^5 M^-1	1.1 ± 0.2 × 10^5 M^-1	–
–	–	COc1ccc(C(=O)Nc2ccc3nc(SC)n(-c4ccc(OC)cc4)c(=O)c3c2)cc1 [D]	–	–	–	–	–	–	IC50 [10, 17]: 200 µM; IC50 [10, 18]: 0.2 µM
–	–	COc1ccc(-n2c(SC)nc3ccc(NC(=O)C4CCCS4)cc3c2=O)cc1 (stereo not drawn) [E]	–	–	–	–	–	–	IC50 [10, 17]: 200 µM
–	–	CC[n+]1c(-c2ccccc2)c2cc(N)ccc2c2ccc(N)cc21 [EtBr, Ethidium bromide]	–	–	–	–	–	–	Kapp Calf Thymus DNA [11]: 1e+07 M⁻¹; Kapp T4 DNA [12]: 1e+07 M⁻¹; Kapp Poly (dA-dT)2 [13]: 95 ^b* × 10^5 M^−1; Kapp Poly (dG-dC)2 [14]: 9.9e+06 M⁻¹
–	–	COc1ccc(CCc2ccc3nc(N)nc(N)c3n2)cc1 [F]	–	–	–	–	–	–	IC50 [10, 18]: 0.2 µM; IC50 [15]: 760 µM
–	–	COc1cccc(CCc2ccc3nc(N)nc(N)c3n2)c1 [G]	–	–	–	–	–	–	IC50 [15]: 450 µM
–	–	COc1cc(CCc2ccc3nc(N)nc(N)c3n2)cc(OC)c1OC [H]	–	–	–	–	–	–	IC50 [15]: 290 µM
100	–	CN(Cc1cnc2nc(N)nc(N)c2n1)c1ccc(C(=O)N[C@@H](CCC(=O)O)C(=O)O)cc1 [MTX, methotrexate, reference compound]	–	–	–	–	–	–	Binding to DNA (pBR322 plasmid), in words [2]: do not bind to DNA; IC50 [10, 18]: […]
100	–	COc1cc(Cc2cnc(N)nc2N)cc(OC)c1OC [TMP, 2,4-diamino-5-(3,4,5-trimethoxybenzyl) pyrimidine, reference compound]	–	–	–	–	–	–	Binding to DNA (pBR322 plasmid), in words [2]: do not bind to DNA

Structure (SMILES)	Decrease of Fluorescence [2] [%]	IC50 [7] [µM]	Kapp T4 DNA [3] [M⁻¹]	Kapp Calf Thymus DNA [4] [M⁻¹]	Kapp Poly (dA-dT)2 [5] [M⁻¹]	Kapp Poly (dG-dC)2 [6] [M⁻¹]	Kapp [8]	Kapp [9]	further results
COc1cc(CC(=O)Nc2cnc(N)nc2)cc(OC)c1OC [Compound 2, N-(2-Aminopyrimidin-5-yl)-2-(3,4,5-Trimethoxyphenyl)Acetamide]	45.18	0.99	110000	440000	390000	80000	3.9 ± 0.2 × 10^5 M^-1	0.8 ± 0.2 × 10^5 M^-1	–
COc1cc(CCC(=O)Nc2cnc(N)nc2)cc(OC)c1OC [Compound 3, N-(2-Aminopyrimidin-5-yl)-3-(3,4,5-Trimethoxyphenyl)Propanamide]	69.92	–	780000	370000	360000	50000	3.6 ± 0.2 × 10^5 M^-1	0.5 ± 0.2 × 10^5 M^-1	–
COc1cc(C(=O)Nc2ccc(N)cc2)cc(OC)c1OC [Compound 4, N-(4-Aminophenyl)-3,4,5-Trimethoxybenzamide]	80.43	1.02	390000	590000	790000	160000	7.9 ± 0.2 × 10^5 M^-1	1.6 ± 0.2 × 10^5 M^-1	–
Cn1cc(NC(=O)c2cc(NC(=O)CN=C(N)N)cn2C)cc1C(=O)NCCC(=N)N [NT, netropsin, reference compound]	74	–	830000	870000	8.75e+07	250000	8.75e+07 M⁻¹	250000 M⁻¹	DNA-binding effect (fluorescence) [16]: 74%
